Measurements taken from US20240270762A1, “PENICILLIN-BINDING PROTEIN INHIBITORS” (priority 2021, published 2024).
Values after ≈ are worked out from the molar mass of the structure shown.

Key:
A. baumannii PBP1a = target: T1, A. baumannii PBP1a (Acinetobacter baumannii, UniProt A0ABX6CK30); test: Bocillin-FL competition binding via gel filtration, A. baumannii PBP1a; details: competition binding assay using Bocillin-FL via gel filtration; read-out: A. baumannii PBP1a Potency
T1 sequence (A0ABX6CK30 1-851): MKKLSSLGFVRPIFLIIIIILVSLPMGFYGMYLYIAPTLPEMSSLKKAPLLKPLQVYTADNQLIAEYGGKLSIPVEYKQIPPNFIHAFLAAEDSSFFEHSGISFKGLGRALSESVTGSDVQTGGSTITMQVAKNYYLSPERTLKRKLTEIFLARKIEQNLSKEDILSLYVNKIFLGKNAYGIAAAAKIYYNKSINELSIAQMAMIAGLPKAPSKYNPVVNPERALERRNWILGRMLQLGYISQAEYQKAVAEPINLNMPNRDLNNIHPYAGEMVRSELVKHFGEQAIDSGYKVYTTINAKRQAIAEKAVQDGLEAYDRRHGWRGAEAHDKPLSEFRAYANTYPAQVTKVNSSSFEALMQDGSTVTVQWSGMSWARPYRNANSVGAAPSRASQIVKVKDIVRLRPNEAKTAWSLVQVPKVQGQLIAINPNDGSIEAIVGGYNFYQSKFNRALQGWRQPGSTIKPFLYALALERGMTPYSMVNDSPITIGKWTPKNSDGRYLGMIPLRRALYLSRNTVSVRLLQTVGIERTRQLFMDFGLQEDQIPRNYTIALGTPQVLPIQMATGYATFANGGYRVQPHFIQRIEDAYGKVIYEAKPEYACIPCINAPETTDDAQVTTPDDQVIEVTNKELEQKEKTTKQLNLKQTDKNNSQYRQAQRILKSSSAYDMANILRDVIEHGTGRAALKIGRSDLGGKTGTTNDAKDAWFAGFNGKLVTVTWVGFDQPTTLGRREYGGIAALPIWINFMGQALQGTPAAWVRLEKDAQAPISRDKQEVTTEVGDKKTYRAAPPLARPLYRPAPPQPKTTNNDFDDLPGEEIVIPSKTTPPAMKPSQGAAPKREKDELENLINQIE
How it was run: (§1)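 Competitive equilibrium binding with Bocillin-FL reporter: PBP pre-incubated with inhibitor dilutions, Bocillin-FL added, 15 min incubation. Labelled enzyme isolated by size-exclusion spin plates, fluorescence measured; EC50 obtained by fitting bound fraction against inhibitor concentration with a Hill-coefficient model.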

P. aeruginosa ATCC 35151 = test: microbe, parasite or virus in culture; type: cell-based; details: Pseudomonas aeruginosa, ATCC35151, read-out: Minimum inhibitory concentration, P. aeruginosa ATCC 35151
A. baumannii CDC-0033 = test: microbe, parasite or virus in culture; type: cell-based; details: Acinetobacter baumannii, CDC0033, read-out: MIC, A. baumannii CDC-0033
P. aeruginosa ATCC 27853 = test: microbe, parasite or virus in culture; type: cell-based; details: Pseudomonas aeruginosa, ATCC27853, read-out: Minimum inhibitory concentration, P. aeruginosa ATCC 27853
[1] = system: B. thailandensis ATCC 700388; test: microbe, parasite or virus in culture; type: cell-based; details: Burkholderia thailandensis, ATCC700388, read-out: Minimum inhibitory concentration (MIC), B. thailandensis ATCC 700388
A. baumannii PBP2 = A. baumannii PBP2 (Acinetobacter baumannii, UniProt D0C8Z9); test: Bocillin-FL competition binding via gel filtration, A. baumannii PBP2
How it was run: as §1

[2] = system: B. humptydooensis ATCC BAA-2767; test: microbe, parasite or virus in culture; type: cell-based; details: Burkholderia humptydooensis, ATCCBAA2767, read-out: Minimum inhibitory concentration (MIC), B. humptydooensis ATCC BAA-2767
A. baumannii CDC-0045 = test: microbe, parasite or virus in culture; type: cell-based; details: Acinetobacter baumannii, CDC0045, read-out: MIC, A. baumannii CDC-0045
P. aeruginosa CDC-0110 = test: microbe, parasite or virus in culture; type: cell-based; details: Pseudomonas aeruginosa, CDC0110, read-out: Minimum inhibitory concentration, P. aeruginosa CDC-0110
A. baumannii CDC-0036 = test: microbe, parasite or virus in culture; type: cell-based; details: Acinetobacter baumannii, CDC0036, read-out: MIC, A. baumannii CDC-0036
[3] = system: P. aeruginosa (ΔmexAB-oprM); test: Broth microdilution MIC in iron-depleted CAMHB (IDM); type: cell-based; details: Pseudomonas aeruginosa; iron-depleted CAMHB (IDM); […]; read-out: Minimum inhibitory concentration, P. aeruginosa ΔmexAB-oprM

Sequence of A. baumannii PBP2 (D0C8Z9 whole entry): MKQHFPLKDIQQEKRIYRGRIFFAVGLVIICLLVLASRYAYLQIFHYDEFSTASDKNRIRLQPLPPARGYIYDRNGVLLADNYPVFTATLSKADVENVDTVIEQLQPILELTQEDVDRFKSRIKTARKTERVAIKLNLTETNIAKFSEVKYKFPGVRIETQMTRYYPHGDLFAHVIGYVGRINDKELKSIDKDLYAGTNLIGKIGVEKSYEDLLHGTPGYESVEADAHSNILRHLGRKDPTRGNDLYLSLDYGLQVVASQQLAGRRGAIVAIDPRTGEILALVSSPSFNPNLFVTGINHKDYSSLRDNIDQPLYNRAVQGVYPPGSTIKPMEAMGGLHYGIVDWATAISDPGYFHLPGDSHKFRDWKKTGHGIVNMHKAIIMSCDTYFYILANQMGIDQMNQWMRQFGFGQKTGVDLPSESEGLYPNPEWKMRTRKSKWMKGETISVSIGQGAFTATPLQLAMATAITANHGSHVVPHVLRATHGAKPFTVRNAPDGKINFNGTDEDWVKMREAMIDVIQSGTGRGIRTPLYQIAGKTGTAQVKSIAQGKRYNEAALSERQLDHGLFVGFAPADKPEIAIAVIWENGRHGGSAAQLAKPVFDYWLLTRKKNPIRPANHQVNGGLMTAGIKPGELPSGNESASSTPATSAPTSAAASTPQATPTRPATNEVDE

Compound	EC50 (A. baumannii PBP1a) [µM]	MIC (P. aeruginosa ATCC 35151) [µg/mL]	MIC (A. baumannii CDC-0033) [µg/mL]	MIC (P. aeruginosa ATCC 27853) [µg/mL]	MIC [1] [µg/mL]	EC50 (A. baumannii PBP2) [µM]	MIC [2] [µg/mL]	MIC (A. baumannii CDC-0045) [µg/mL]	MIC (P. aeruginosa CDC-0110) [µg/mL]	MIC (A. baumannii CDC-0036) [µg/mL]	MIC [3] [µg/mL]
O=C(O)c1c(F)ccc2c1OB(O)[C@@H](NC(=O)[C@H](NC(=O)N1CCN(C3CCN(C(=O)Nc4ccc(F)c(O)c4)CC3)C1=O)c1cc(F)c(O)c(O)c1Cl)C2 (single isomer, unassigned) [Example 449]	< 10	< 1	< 1	< 1	< 1	< 10	2 to 4 (≈ 2.53 to 5.06 µM)	< 1	< 1	< 1	< 1
O=C(O)c1c(F)ccc2c1OB(O)[C@@H](NC(=O)[C@H](NC(=O)N1CCN(C3CCN(C(=O)Nc4cc(O)cc(F)c4)CC3)C1=O)c1cc(F)c(O)c(O)c1Cl)C2 (single isomer, unassigned) [Example 450]	< 10	< 1	< 1	< 1	< 1	< 10	8 to 16 (≈ 10.1 to 20.2 µM)	< 1	< 1	< 1	< 1
O=C(O)c1c(F)ccc2c1OB(O)[C@@H](NC(=O)[C@H](NC(=O)N1CCN(C3CCN(C(=O)Nc4cc(O)ccc4F)CC3)C1=O)c1cc(F)c(O)c(O)c1Cl)C2 (single isomer, unassigned) [Example 451]	< 10	< 1	< 1	< 1	< 1	< 10	< 1	< 1	< 1	< 1	< 1
O=C(O)c1c(F)ccc2c1OB(O)[C@@H](NC(=O)[C@H](NC(=O)N1CCN(C3CCN(C(=O)Nc4c(F)ccc(O)c4F)CC3)C1=O)c1cc(F)c(O)c(O)c1Cl)C2 (single isomer, unassigned) [Example 454]	< 10	< 1	2 to 4 (≈ 2.47 to 4.95 µM)	2 to 4 (≈ 2.47 to 4.95 µM)	< 1	< 10	< 1	< 1	< 1	< 1	< 1
O=C(O)c1c(F)ccc2c1OB(O)[C@@H](NC(=O)[C@H](NC(=O)N1CCN(C3CCN(C(=O)Nc4c(F)ccc(O)c4Cl)CC3)C1=O)c1cc(F)c(O)c(O)c1Cl)C2 (single isomer, unassigned) [Example 455]	< 10	< 1	< 1	< 1	< 1	< 10	< 1	< 1	< 1	< 1	< 1
O=C(O)c1c(F)ccc2c1OB(O)[C@@H](NC(=O)[C@H](NC(=O)N1CCN(C3CCN(C(=O)c4ccc(O)cc4)CC3)C1=O)c1cc(F)c(O)c(O)c1Cl)C2 (single isomer, unassigned) [Example 463]	< 10	< 1	< 1	< 1	< 1	< 10	< 1	< 1	< 1	< 1	< 1
O=C(O)c1cccc2c1OB(O)[C@@H](NC(=O)C(NC(=O)N1CCN(Cc3cc(F)c(O)c(O)c3Cl)C(=O)C1=O)c1ccc(P(=O)(O)O)cc1)C2 (stereo partly drawn) [Example 164, (3R)-3-(2-(4-(2-chloro-5-fluoro-3,4-dihydroxybenzyl)-2,3-dioxopiperazine-1-carboxamido)-2-(4-phosphonophenyl)acetamido)-2-hydroxy-3,4-dihydro-2H-benzo[e][1,2]oxaborinine-8-carboxylic acid]	< 10	< 1	< 1	< 1	< 1	< 10	< 1	< 1	< 1	< 1	< 1
O=C(O)c1c(F)ccc2c1OB(O)[C@@H](NC(=O)[C@H](NC(=O)N1CCN(Cc3ccc(O)c(O)c3Cl)C(=O)C1=O)c1ccc(P(=O)(O)O)c(F)c1F)C2 [Example 166, (R)-3-((R)-2-(4-(2-chloro-3,4-dihydroxybenzyl)-2,3-dioxopiperazine-1-carboxamido)-2-(2,3-difluoro-4-phosphonophenyl)acetamido)-7-fluoro-2-hydroxy-3,4-dihydro-2H-benzo[e][1,2]oxaborinine-8-carboxylic acid]	10 to 50	< 1	< 1	< 1	< 1	10 to 50	< 1	< 1	< 1	< 1	< 1
O=C(NCCS(=O)(=O)N1CCN(C(=O)N[C@H](C(=O)N[C@H]2Cc3ccc(F)c(C(=O)O)c3OB2O)c2ccc(P(=O)(O)O)cc2)C1=O)c1ccc(O)c(O)c1Cl [Example 167, (R)-3-((S)-2-(3-((2-(2-chloro-3,4-dihydroxybenzamido)ethyl)sulfonyl)-2-oxoimidazolidine-1-carboxamido)-2-(4-phosphonophenyl)acetamido)-7-fluoro-2-hydroxy-3,4-dihydro-2H-benzo[e][1,2]oxaborinine-8-carboxylic acid]	50 to 250	32 to 64 (≈ 38.7 to 77.3 µM)	> 128	> 128	> 128	10 to 50	> 128	> 128	> 128	> 128	> 128
O=C(O)c1c(F)ccc2c1OB(O)[C@@H](NC(=O)[C@H](NC(=O)N1CCN(C3CCN(C(=O)c4ccc(F)c(O)c4Cl)CC3)C1=O)c1cc(F)c(O)c(O)c1Cl)C2 [Example 438, (R)-3-((R)-2-(3-(1-(2-chloro-4-fluoro-3-hydroxybenzoyl)piperidin-4-yl)-2-oxoimidazolidine-1-carboxamido)-2-(2-chloro-5-fluoro-3,4-dihydroxyphenyl)acetamido)-7-fluoro-2-hydroxy-3,4-dihydro-2H-benzo[e][1,2]oxaborinine-8-carboxylic acid]	< 10	< 1	< 1	< 1	< 1	< 10	< 1	< 1	< 1	< 1	< 1
O=C(O)c1c(F)ccc2c1OB(O)[C@@H](NC(=O)[C@H](NC(=O)N1CCN(C3CCN(C(=O)Nc4cccc(O)c4)CC3)C1=O)c1cc(F)c(O)c(O)c1Cl)C2 [Example 445, (R)-3-((R)-2-(2-chloro-5-fluoro-3,4-dihydroxyphenyl)-2-(3-(1-((3-hydroxyphenyl)carbamoyl)piperidin-4-yl)-2-oxoimidazolidine-1-carboxamido)acetamido)-7-fluoro-2-hydroxy-3,4-dihydro-2H-benzo[e][1,2]oxaborinine-8-carboxylic acid]	< 10	< 1	2 to 4 (≈ 2.59 to 5.18 µM)	< 1	< 1	< 10	< 1	< 1	< 1	< 1	< 1
